# Experimental data published in patent US12667572B2, “Tricyclic compounds useful in the treatment of cancer, autoimmune and inflammatory disorders” (SCHRÖDINGER, INC., priority 2021, dated 2026).
# Biological target: T1, full-length MALT1 protein His-MALT1(1-824) (Homo sapiens, UniProt Q9UDY8)
# T1 construct: full-length MALT1 protein His-MALT1(1-824); His (N); made in house; host or cells: baculovirus-infected insect cells
# T1 sequence (Q9UDY8 1-824): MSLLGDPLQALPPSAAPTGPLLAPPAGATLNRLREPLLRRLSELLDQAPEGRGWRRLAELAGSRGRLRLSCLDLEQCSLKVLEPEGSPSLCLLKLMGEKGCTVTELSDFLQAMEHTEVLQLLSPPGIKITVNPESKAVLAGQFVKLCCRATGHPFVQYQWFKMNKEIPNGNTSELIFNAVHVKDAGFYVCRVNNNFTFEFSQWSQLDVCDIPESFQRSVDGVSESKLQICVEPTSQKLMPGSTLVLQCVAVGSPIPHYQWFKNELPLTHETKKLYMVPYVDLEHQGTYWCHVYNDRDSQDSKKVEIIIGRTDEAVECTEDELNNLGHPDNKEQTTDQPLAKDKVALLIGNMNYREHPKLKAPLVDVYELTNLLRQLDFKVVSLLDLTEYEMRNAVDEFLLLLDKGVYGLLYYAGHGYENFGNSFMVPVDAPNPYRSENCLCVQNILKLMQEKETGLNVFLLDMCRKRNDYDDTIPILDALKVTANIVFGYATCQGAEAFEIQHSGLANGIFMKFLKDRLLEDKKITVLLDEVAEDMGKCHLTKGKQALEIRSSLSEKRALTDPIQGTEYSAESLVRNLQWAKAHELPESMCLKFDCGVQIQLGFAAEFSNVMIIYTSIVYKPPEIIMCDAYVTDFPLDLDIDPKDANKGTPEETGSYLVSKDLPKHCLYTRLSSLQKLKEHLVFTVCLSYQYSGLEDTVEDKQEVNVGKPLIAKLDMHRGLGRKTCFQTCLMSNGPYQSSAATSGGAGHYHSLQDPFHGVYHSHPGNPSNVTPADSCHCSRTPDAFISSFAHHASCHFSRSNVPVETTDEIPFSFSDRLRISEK
# Assay: MALT1 protease assay, Assay 2 (1 nM MALT1, Ac-LRSR-AMC substrate)
# Format: biochemical
# Conditions: 1 nM MALT1, 50 μM Ac-LRSR-AMC, 2 h pre-incubation, 8 hr incubation at RT
# Procedure, shortened: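 Compounds (0.1% DMSO final) sat 2 h at RT with insect-cell-expressed His-MALT1(1-824), in 50 mM Tris pH 7.5, 600 mM sodium citrate, 1 mM DTT, 1 mM EDTA, 0.05% BSA. Cleavage of 50 μM Ac-LRSR-AMC (Km ~100 μM) ran 8 h at RT, read as AMC fluorescence. IC50 and Hill coefficient fitted to % remaining activity.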
row,Compound,IC50 [nM]
1,"CC1(C)CC(C(=O)Nc2cnc(N=S(C)(C)=O)c(Cl)c2)c2cnc3cc(F)nn3c21 (single isomer, unassigned) [Example 131, N-(5-chloro-6-((dimethyl(oxo)-λ^6-sulfaneylidene)amino)pyridin-3-yl)-2-fluoro-8,8-dimethyl-7,8-dihydro-6H-cyclopenta[e]pyrazolo[1,5-a]pyrimidine-6-carboxamide]",≥ 1000
2,"CCO[C@@]1(C(F)(F)F)C[C@@H](C(=O)Nc2cnc(-n3nccn3)c(Cl)c2)c2cnc3cc(Cl)nn3c21 (single isomer, unassigned) [Example 167, (cis)-2-chloro-N-(5-chloro-6-(2H-1,2,3-triazol-2-yl)pyridin-3-yl)-8-ethoxy-8-(trifluoromethyl)-7,8-dihydro-6H-cyclopenta[e]pyrazolo[1,5-a]pyrimidine-6-carboxamide]",100 to 1000
3,"C[C@]1(C(F)(F)F)C[C@@H](C(=O)Nc2cnc(-n3nccn3)c(Cl)c2)c2cnc3cc(F)nn3c21 (single isomer, unassigned) [Example 184]",100 to 1000
4,"O=C(Nc1cnc(C(O)C(F)F)c(Cl)c1)C1CC2(CCC2)c2c1cnc1cc(F)nn21 (single isomer, unassigned) [Example 133, N-(5-chloro-6-(2,2-difluoro-1-hydroxyethyl)pyridin-3-yl)-2′-fluoro-6′,7′-dihydrospiro[cyclobutane-1,8′-cyclopenta[e]pyrazolo[1,5-a]pyrimidine]-6′-carboxamide]",≥ 1000
5,"CC1(C)C[C@H](C(=O)Nc2cc(C(F)F)c(-c3ncco3)c(=O)[nH]2)c2cnc3cc(Cl)nn3c21 (single isomer, unassigned) [Example 58, 2-chloro-N-(4-(difluoromethyl)-5˜(oxazol-2-yl)-6-oxo-1,6-dihydropyridin-2-yl)-8,8-dimethyl-7,8-dihydro-6H-cyclopenta[e]pyrazolo[1,5-a]pyrimidine-6-carboxamide]",10 to 100
6,"O=C(Nc1cnc(C(O)C(F)F)c(Cl)c1)C1CC2(CCC2)c2c1cnc1cc(F)nn21 (single isomer, unassigned) [Example 134, N-(5-chloro-6-(2,2-difluoro-1-hydroxyethyl)pyridin-3-yl)-2′-fluoro-6′,7′-dihydrospiro[cyclobutane-1,8′-cyclopenta[e]pyrazolo[1,5-a]pyrimidine]-6′-carboxamide]",≥ 1000
7,"CC1(C)CC(C(=O)Nc2cc(C(F)F)c(-c3cnco3)c(=O)[nH]2)c2cnc3cc(Cl)nn3c21 (centres unmarked) [Example 59, 2-chloro-N-(4-(difluoromethyl)-5˜(oxazol-5-yl)-6-oxo-1,6-dihydropyridin-2-yl)-8,8-dimethyl-7,8-dihydro-6H-cyclopenta[e]pyrazolo[1,5-a]pyrimidine-6-carboxamide]",10 to 100
8,"CC1(C)CC(O)(C(=O)Nc2cnc(-n3nccn3)c(Cl)c2)c2cnc3cc(Cl)nn3c21 (centres unmarked) [Example 69, 2-chloro-N-(5-chloro-6-(2H-1,2,3-triazol-2-yl)pyridin-3-yl)-6-hydroxy-8,8-dimethyl-7,8-dihydro-6H-cyclopenta[e]pyrazolo[1,5-a]pyrimidine-6-carboxamide]",≥ 1000
9,"O=C(Nc1cnc([C@H](O)C(F)F)c(Cl)c1)[C@H]1CC2(CCC2)c2c1cnc1cc(F)nn21 (single isomer, unassigned) [Example 136, N-(5-chloro-6-(2,2-difluoro-1-hydroxyethyl)pyridin-3-yl)-2′-fluoro-6′,7′-dihydrospiro[cyclobutane-1,8′-cyclopenta[e]pyrazolo[1,5-a]pyrimidine]-6′-carboxamide]",100 to 1000
10,"O=C(Nc1cnc([C@@H](O)C(F)F)c(Cl)c1)[C@H]1CC2(CCC2)c2c1cnc1cc(F)nn21 (single isomer, unassigned) [Example 135, N-(5-chloro-6-(2,2-difluoro-1-hydroxyethyl)pyridin-3-yl)-2′-fluoro-6′,7′-dihydrospiro[cyclobutane-1,8′-cyclopenta[e]pyrazolo[1,5-a]pyrimidine]-6′-carboxamide]",100 to 1000
11,"CC1(C)C[C@@H](C(=O)Nc2cnc(-n3nccn3)c(C#N)c2)c2cnc3cc(Cl)nn3c21 (single isomer, unassigned) [Example 106, 2-chloro-N-(5-cyano-6-(2H-1,2,3-triazol-2-yl)pyridin-3-yl)-8,8-dimethyl-7,8-dihydro-6H-cyclopenta[e]pyrazolo[1,5-a]pyrimidine-6-carboxamide]",10 to 100
12,"CC1(C)CC(C(=O)Nc2cnc(C(=O)N3CC(F)(F)C3)c(C(F)(F)F)c2)c2cnc3cc(Cl)nn3c21 (centres unmarked) [Example 164, 2-chloro-N-(6-(3,3-difluoroazetidine-1-carbonyl)-5˜(trifluoromethyl)pyridin-3-yl)-8,8-dimethyl-7,8-dihydro-6H-cyclopenta[e]pyrazolo[1,5-a]pyrimidine-6-carboxamide]",100 to 1000
13,"CC1(C)CC(C(=O)Nc2ccnc(C(F)(F)F)c2)c2cnn3cc(C(F)F)nc3c21 (single isomer, unassigned) [Example 201, 2-(difluoromethyl)-9,9-dimethyl-N-(2-(trifluoromethyl)pyridin-4-yl)-8,9-dihydro-7H-cyclopenta[d]imidazo[1,2-b]pyridazine-7-carboxamide]",100 to 1000
14,"Cc1cc(NC(=O)C2CC(C)(C)c3c2cnc2cc(F)nn32)cnc1-c1ccn(C)n1 (centres unmarked) [Example 177, 2-fluoro-8,8-dimethyl-N-(5-methyl-6-(1-methyl-1H-pyrazol-3-yl)pyridin-3-yl)-7,8-dihydro-6H-cyclopenta[e]pyrazolo[1,5-a]pyrimidine-6-carboxamide]",100 to 1000
15,"CC1(C)OC(C(=O)Nc2cnc(-n3nccn3)c(Cl)c2)c2cnc3cc(Cl)nn3c21 (single isomer, unassigned) [Example 70, 2-chloro-N-(5-chloro-6-(2H-1,2,3-triazol-2-yl)pyridin-3-yl)-8,8-dimethyl-6,8-dihydrofuro[3,4-e]pyrazolo[1,5-a]pyrimidine-6-carboxamide]",≥ 1000
16,"CC1(C)CC(C(=O)Nc2cc(C(F)F)c(-c3c[nH]cn3)c(=O)[nH]2)c2cnc3cc(Cl)nn3c21 (centres unmarked) [Example 48, 2-chloro-N-(4-(difluoromethyl)-5˜(1H-imidazol-4-yl)-6-oxo-1,6-dihydropyridin-2-yl)-8,8-dimethyl-7,8-dihydro-6H-cyclopenta[e]pyrazolo[1,5-a]pyrimidine-6-carboxamide]",10 to 100
17,"CC(C)(O)c1ncc(NC(=O)C2CC3(CCC3)c3c2cnc2cc(F)nn32)cc1C(F)(F)F (single isomer, unassigned) [Example 153, 2′-fluoro-N-(6-(2-hydroxypropan-2-yl)-5-(trifluoromethyl)pyridin-3-yl)-6′,7′-dihydrospiro[cyclobutane-1,8′-cyclopenta[e]pyrazolo[1,5-a]pyrimidine]-6′-carboxamide]",≥ 1000
18,"CC1(C)CC(C(=O)Nc2cnc(-n3nccn3)c(Cl)c2)c2cnc3c(F)cnn3c21 (single isomer, unassigned) [Example 100, N-(5-chloro-6-(2H-1,2,3-triazol-2-yl)pyridin-3-yl)-3-fluoro-8,8-dimethyl-7,8-dihydro-6H-cyclopenta[e]pyrazolo[1,5-a]pyrimidine-6-carboxamide]",100 to 1000
19,"CC1(C)C[C@@H](C(=O)Nc2cnc(-n3nccn3)c(C#N)c2)c2cnc3cc(C(F)F)nn3c21 (single isomer, unassigned) [Example 129, N-(5-cyano-6-(2H-1,2,3-triazol-2-yl)pyridin-3-yl)-2-(difluoromethyl)-8,8-dimethyl-7,8-dihydro-6H-cyclopenta[e]pyrazolo[1,5-a]pyrimidine-6-carboxamide]",100 to 1000
20,"C[C@]1(C(F)(F)F)C[C@H](C(=O)Nc2cnc(-n3nccn3)c(Cl)c2)c2cnc3cc(F)nn3c21 (single isomer, unassigned) [Example 187]",10 to 100
21,"CC1(C)CC(C(=O)Nc2cnc(OC(F)F)c(C#N)n2)c2cnc3cc(F)nn3c21 (single isomer, unassigned) [Example 87, N-(6-cyano-5-(difluoromethoxy)pyrazin-2-yl)-2-fluoro-8,8-dimethyl-7,8-dihydro-6H-cyclopenta[e]pyrazolo[1,5-a]pyrimidine-6-carboxamide]",≥ 1000
22,"CC1(C)CC(C(=O)Nc2cnc(-n3nccn3)c(C#N)c2)c2cnn3cc(C(F)F)nc3c21 (single isomer, unassigned) [Example 197, N-(5-cyano-6-(2H-1,2,3-triazol-2-yl)pyridin-3-yl)-2-(difluoromethyl)-9,9-dimethyl-8,9-dihydro-7H-cyclopenta[d]imidazo[1,2-b]pyridazine-7-carboxamide]",10 to 100
23,"CC1(C)C[C@@H](C(=O)Nc2cc(C#N)c(OC(F)F)cn2)c2cnc3cc(F)nn3c21 (single isomer, unassigned) [Example 169]",≥ 1000
